Experimental data as given in patent US20250059208A1, “KRAS MODULATING COMPOUNDS” (priority 2023, published 2025).
Read-outs that look alike come from different tables or passages of the source.

Experiments:
[1] = system: cellular pERK in ASPC-1 (KRAS G12D) cell-line; assay: Cell based pERK assay, ASPC-1; conditions: ASPC-1 (KRAS G12D) cells, 2 hours compound incubation, HTRF Phospho-ERK1/2
Method: (§1) Compounds were tested in a 384-well assay format for their ability to inhibit cellular pERK in Kuramochi (WT KRAS), MIA-PaCa-2 (KRAS-G12C), ASPC-1 (KRAS G12D), and NCI-H441 (KRAS-G12V) cell-lines. Compounds were serially diluted (1:3) in DMSO. On day −1, 80 μL of cells were plated per well in the 384 well tissue-culture plates (Greiner: Cat #781080) to seed 5000 cells per wells of AsPC-1 or 7500 cells of MIA-PaCa-2, NCI-H441, and Kuramochi cell lines in RPMI (Corning: Cat #10-040-CM) with 10% fetal bovine serum (FBS) (HyClone: Cat #SH30071-03) and IX penicillin-streptomycin-glutamate (PSG) (Corning: Cat #30-009-C1) for […] and Kuramochi cell lines and DMEM (Corning: Cat #15-018-CM) with 10% FBS and 1×PSG for MIA-PaCa-2 cell line. The plates were then incubated overnight at 37° C. and 5% CO2. On day 0, 400 nL of compound/well was added into the cell plates and mixed 5 times by pipetting using a Beckmann Biomek FX. The cell plates were then incubated for 2 hours at 37° C. and 5% CO2. HTRF Advanced Phospho-ERK1/2 (THR202/TYR204) Detection Kits (PerkinElmer: Cat #64AERPEG) were used to prepare the lysis and detection solution according to manufacturer protocol. Following the 2 hour incubation, 70 μL of medium was aspirated from the plates and 10 μL of lysis and detection solution was added to the plates using a Biotek EL406 washer and dispenser. Plates were sealed and stored overnight at room temperature. HTRF ratio (665 nm/615 nm) was read by Envision multimode reader (PerkinElmer) the next day. The TR-FRET ratios were normalized to a positive (saturating concentration of known inhibitor) and negative (DMSO) control and plotted against the log of compound concentration.

GDP-loaded KRAS-G12V = GDP-loaded KRAS-G12V (Homo sapiens, UniProt P01116, G12V); assay: KRAS (GDP) biochemical TR-FRET probe displacement assay, G12V; assay type: binding; conditions: 2 hours at room temperature
Method: (§2) • Compounds were tested for binding to GDP-loaded wild-type KRAS (WT), KRAS-G12C, KRAS-G12D, and KRAS-G12V in a 384-well assay format using a TR-FRET probe displacement assay in buffer consisting of 50 mM Hepes (pH 7.4), 150 mM NaCl. 5 mM MgCl2 and 0.005% Tween-20. 0.03 nM KRAS was used in this assay with 0.02 nM Eu-streptavidin and 12 nM Cy-5 labelled probe. Compounds were serially diluted (1:3) in DMSO. The LabCyte ECHO Acoustic dispenser was used to pre-spot the assay plates (384-well Non-Binding Surface plates, Corning, Catalog #3824) with 50 nL of compound. 5 μL of 2× enzyme concentration was added to the pre-spotted plates and incubated for 30 minutes before adding 5 μL of 2× concentration of Eu-streptavidin and Cy-5 labelled probe (10 μL final reaction volume). The plates were incubated at room temperature for 2 hours before measuring TR-FRET ratio (665 nm/615 nm) on the Envision multimode plate reader. The ratios were normalized to a positive (saturating concentration of known inhibitor) and negative (DMSO) control and plotted against the log of compound concentration. […]

[2] = system: cellular pERK in NCI-H441 (KRAS-G12V) cell-line; assay: Cell based pERK assay, NCI-H441; conditions: Homo sapiens; NCI-H441 (KRAS-G12V) cells, 2 hours compound incubation, HTRF Phospho-ERK1/2
Method: as §1

[3] = system: cellular pERK in MIA-PaCa-2 (KRAS-G12C) cell-line; assay: Cell based pERK assay, MIA-PaCa-2; conditions: Homo sapiens; MIA-PaCa-2 (KRAS-G12C) cells, 2 hours compound incubation, HTRF Phospho-ERK1/2; read-out: MIAPaCa2 pERK EC50
Method: as §1

[4] = system: cellular pERK in Kuramochi (WT KRAS) cell-line; assay: Cell based pERK assay, Kuramochi; conditions: Kuramochi (WT KRAS) cells, 2 hours compound incubation, HTRF Phospho-ERK1/2
Method: as §1

[5] = target: GDP-loaded wild-type KRAS (WT) (Homo sapiens, UniProt P01116); assay: KRAS (GDP) biochemical TR-FRET probe displacement assay, WT; assay type: binding; conditions: 2 hours at room temperature
Method: as §2

GDP-loaded KRAS-G12D = GDP-loaded KRAS-G12D (Homo sapiens, UniProt P01116, G12D); assay: KRAS (GDP) biochemical TR-FRET probe displacement assay, G12D; assay type: binding; conditions: 2 hours at room temperature
Method: as §2

GDP-loaded KRAS-G12C = GDP-loaded KRAS-G12C (Homo sapiens, UniProt P01116, G12C); assay: KRAS (GDP) biochemical TR-FRET probe displacement assay, G12C; assay type: binding; conditions: 2 hours at room temperature
Method: as §2

GDP-loaded KRAS-G12C, sequence (P01116 1-188 isoform P01116-2 G12C): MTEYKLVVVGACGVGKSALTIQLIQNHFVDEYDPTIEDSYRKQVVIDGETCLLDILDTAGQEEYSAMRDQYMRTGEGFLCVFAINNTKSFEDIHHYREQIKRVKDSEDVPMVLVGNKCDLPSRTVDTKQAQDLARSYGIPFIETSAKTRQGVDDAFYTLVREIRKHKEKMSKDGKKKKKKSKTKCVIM
GDP-loaded wild-type KRAS (WT), sequence (P01116 1-188 isoform P01116-2): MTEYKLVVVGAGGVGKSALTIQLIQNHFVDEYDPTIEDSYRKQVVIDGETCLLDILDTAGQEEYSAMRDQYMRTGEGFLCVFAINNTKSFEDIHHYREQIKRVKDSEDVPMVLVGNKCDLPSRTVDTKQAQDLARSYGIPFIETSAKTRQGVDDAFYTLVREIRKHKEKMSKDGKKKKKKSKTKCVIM
GDP-loaded KRAS-G12D, sequence (P01116 1-188 isoform P01116-2 G12D): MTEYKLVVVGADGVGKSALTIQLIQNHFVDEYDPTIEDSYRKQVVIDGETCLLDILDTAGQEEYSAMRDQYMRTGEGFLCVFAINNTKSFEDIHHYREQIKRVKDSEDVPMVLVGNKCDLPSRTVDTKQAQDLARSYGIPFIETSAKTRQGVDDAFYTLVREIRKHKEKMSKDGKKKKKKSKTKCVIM
GDP-loaded KRAS-G12V, sequence (P01116 1-188 isoform P01116-2 G12V): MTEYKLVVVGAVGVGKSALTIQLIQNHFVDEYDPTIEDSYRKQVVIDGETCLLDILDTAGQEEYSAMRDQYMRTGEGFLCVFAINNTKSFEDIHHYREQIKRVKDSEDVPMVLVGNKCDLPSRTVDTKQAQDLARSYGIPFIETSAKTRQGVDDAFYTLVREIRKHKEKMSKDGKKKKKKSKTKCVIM

Compound | EC50 ([1]; Homo sapiens, ASPC1, 2 h) [nM] | IC50 (GDP-loaded KRAS-G12V) [nM] | EC50 [2] [nM] | EC50 [3] [nM] | EC50 ([4]; 2 h) [nM] | IC50 [5] [nM] | IC50 (GDP-loaded KRAS-G12D) [nM] | IC50 (GDP-loaded KRAS-G12C) [nM] | EC50 ([1]; read-out: AsPC1 pERK EC50) [nM] | EC50 [4] [nM]
C#Cc1c(F)ccc2cc(N)cc(-c3ncc4c(N5CC6(F)CCC(F)(C5)N6)nc(OC[C@@]56CCCN5C[C@H](F)C6)nc4c3F)c12 [Example 5-1, 4-(4-(1,5-difluoro-3,8-diazabicyclo[3.2.1]octan-3-yl)-8-fluoro-2-(((2R,7aS)-2-fluorotetrahydro-1H-pyrrolizin-7a(5H)-yl)methoxy)pyrido[4,3-d]pyrimidin-7-yl)-5-ethynyl-6-fluoronaphthalen-2-amine] | 25.9 | 7.59 | 8.41 | 4.99 | 2.94 | 2.31 | 15.1 | 2.78 | – | –
C#Cc1c(F)ccc2cc(N)nc(-c3c(Cl)cc4c(N5CC6(F)CCC(F)(C5)N6)nc(OC[C@@]56CCCN5C[C@H](F)C6)nc4c3F)c12 [Example 7-5] | 735 | > 100 | 548 | 179 | 21.8 | > 100 | > 100 | > 100 | – | –
C#Cc1c(F)ccc2cccc(-c3ncc4c(N5C[C@]6(F)CC[C@](F)(C5)N6)nc(OCC56CCCN5CCC6)nc4c3F)c12 [Example 3-1, 4-((1R,5S)-1,5-difluoro-3,8-diazabicyclo[3.2.1]octan-3-yl)-7-(8-ethynyl-7-fluoronaphthalen-1-yl)-8-fluoro-2-((tetrahydro-1H-pyrrolizin-7a(5H)-yl)methoxy)pyrido[4,3-d]pyrimidine] | 368 | – | 117 | 38.4 | 8.71 | – | – | – | – | –
C#Cc1c(F)ccc2cc(O)cc(-c3ncc4c(N5CC6(F)CCC(F)(C5)N6)nc(OC[C@@H]5CC[C@]6(COc7cc(C(F)(F)F)ncn7)CCCN56)nc4c3F)c12 [Example 2-11] | 54.5 | 22.2 | 56.3 | 5.79 | 24.5 | 12.3 | 11.6 | 16.8 | – | –
Cc1c(F)c(N)cc(-c2ncc3c(N4CC5(F)CCC(F)(C4)N5)nc(OC[C@@]45CCCN4C[C@H](F)C5)nc3c2F)c1C(F)(F)F [Example 6-4] | 449 | 21.6 | – | – | 11.3 | 17.3 | > 100 | 20.1 | – | –
N#Cc1c(N)sc2c(F)ccc(-c3c(Cl)cc4c(N5CC6(F)CCC(F)(C5)N6)nc(OC[C@@]56CCCN5C[C@H](F)C6)nc4c3F)c12 (single isomer, unassigned) [Example 8-2] | – | 50.1 | 256 | 65.4 | – | 3.31 | 43 | 23.3 | 614 | 79.8
Fc1ccc2nc(C(F)(F)F)c(-c3c(F)cc4c(N5CC6(F)CCC(F)(C5)N6)nc(OC[C@@]56CCCN5C[C@H](F)C6)nc4c3F)n2c1 [Example 6-3] | – | > 100 | – | – | – | > 100 | > 100 | > 100 | – | –
C#Cc1c(F)c(F)cc2cc(O)cc(-c3c(F)cc4c(N5CC6(F)CCC(F)(C5)N6)nc(OCC56CCCN5CCC6)nc4c3F)c12 [Example 2-5] | 61.7 | 0.2 | 6.29 | 3.01 | 8.69 | 0.29 | 0.61 | 0.15 | – | –
CCc1c(F)ccc2cc(O)cc(-c3ncc4c(N5CC6(F)CCC(F)(C5)N6)nc(OC[C@@]56CCCN5C[C@H](F)C6)nc4c3F)c12 [Example 4-1, 4-(4-((1R,5S)-1,5-difluoro-3,8-diazabicyclo[3.2.1]octan-3-yl)-8-fluoro-2-(((2R,7aS)-2-fluorotetrahydro-1H-pyrrolizin-7a(5H)-yl)methoxy)pyridol[4,3-d]pyrimidin-7-yl)-5-ethyl-6-fluoronaphthalen-2-ol] | 11.9 | – | 4.7 | 2.22 | 1.35 | – | – | – | – | –
CCc1c(F)ccc2cccc(-c3ncc4c(N5CC6(F)CCC(F)(C5)N6)nc(OC[C@@]56CCCN5C[C@H](F)C6)nc4c3F)c12 [Example 4-2] | 1030 | – | 507 | 301 | 53.3 | – | – | – | – | –
C#Cc1c(F)ccc2cccc(-c3ncc4c(N5CC6(F)CCC(F)(C5)N6)nc(OC[C@@]56CCCN5C[C@H](F)C6)nc4c3F)c12 [Example 1-2] | 194 | 84 | 66 | 32.2 | 11.9 | 26.6 | ≥ 100 | 38 | – | –
N#Cc1c(N)sc2c(F)ccc(-c3c(Cl)cc4c(N5CC6(F)CCC(F)(C5)N6)nc(OC[C@@]56CCCN5C[C@H](F)C6)nc4c3F)c12 (single isomer, unassigned) [Example 8-1] | – | 1 | – | – | – | 0.13 | 1.46 | 1.03 | 25.3 | 2.57
C#Cc1c(F)ccc2cc(O)cc(-c3ncc4c(N5CC6(F)CCC(F)(C5)N6)nc(OC[C@@]56CCCN5[C@H](COc5cc(C(F)(F)F)ncn5)CC6)nc4c3F)c12 [Example 2-3] | 2.15 | 0.42 | 2.07 | 0.19 | 2.55 | 0.29 | 0.55 | 0.4 | – | –
Cc1cc(-c2c(F)cc3c(N4CC5(F)CCC(F)(C4)N5)nc(OC[C@@]45CCCN4C[C@H](F)C5)nc3c2F)c2cccnc2c1N [Example 2-7] | > 1000 | > 100 | > 1000 | > 1000 | > 1000 | > 100 | > 100 | > 100 | – | –
C#Cc1c(F)ccc2cc(O)cc(-c3ncc4c(N5C[C@]6(F)CC[C@](F)(C5)N6)nc(OCC56CCCN5CCC6)nc4c3F)c12 [Example 2-1, 4-(4-((1R,5S)-1,5-difluoro-3,8-diazabicyclo[3.2.1]octan-3-yl)-8-fluoro-2-((tetrahydro-1H-pyrrolizin-7a(5H)-yl)methoxy)pyrido[4,3-d]pyrimidin-7-yl)-5-ethynyl-6-fluoronaphthalen-2-ol] | 71.1 | – | 17.9 | 6.9 | 11.5 | – | – | – | – | –
C#Cc1c(F)ccc2cc(O)cc(-c3c(F)cc4c(N5CC6(F)CCC(F)(C5)N6)nc(OC[C@@]56CCCN5C[C@H](F)C6)nc4c3F)c12 (single isomer, unassigned) [Example 9-2] | – | 72.6 | – | – | – | 66.3 | 97.8 | – | > 1000 | > 1000
C#Cc1c(F)ccc2cc(O)cc(-c3c(F)cc4c(N5CC6(F)CCC(F)(C5)N6)nc(OC[C@@]56CCCN5C[C@H](F)C6)nc4c3F)c12 (single isomer, unassigned) [Example 9-1] | – | 0.19 | – | – | – | 0.18 | 0.32 | 0.17 | 6.2 | 4.25
